Test results reported in patent publication US11059800B2, “Dehydroleucodine derivatives and uses thereof” (Bioventures, LLC, priority 2013, dated 2021).

Key:
Kasumi-1 = experiment: Cytotoxicity, annexin V/7-AAD viability by flow cytometry, Kasumi-1; type: cell-based, human; conditions: Kasumi-1, 48 hours, drug range tested 1.25-160 μM
Description: (§1) In order to assess the structure-activity relationship of DHL and its derivatives, DHL and its derivatives were evaluated against eight human leukemia cell lines. Cell lines were cultured in Iscove's Modified Dulbecco's Medium (IMDM) supplemented with 10%˜20% fetal bovine serum (FBS) according to culture conditions indicated by ATCC and 1% penicillin/streptomycin (Pen/Strep) at 37° C. and 5% CO2. The cells were seeded into 96-well plates and kept at a concentration of 0.5 million cells per mL. The samples were treated with DHL, Leucodine, DHL-Morpholine, DHL-Proline, DHL-Piperidine, and PTL at varying concentrations in triplicates. Cell viability was determined after incubating for 48 hours. The cells were stained with annexin V-fluorescein isothiocyanate or phycoeritrine (FITC/PE) and 7-aminoactinomycin (7-AAD) to detect phosphatidylserine exposition and cell permeability, respectively. At least 50,000 events were recorded per condition on either an LSR-II or LSR-Fortessa flow cytometer (BD Biosciences). Data analysis was conducted using FlowJo 9.6 software for Mac OS X (TreeStar). Cells that were negative for annexin V and 7-AAD were scored as viable.

MOLM-13 = experiment: Cytotoxicity, annexin V/7-AAD viability by flow cytometry, MOLM-13; type: cell-based, human; conditions: MOLM-13, 48 hours, drug range tested 1.25-160 μM
Description: as §1

MV4-11 = experiment: Cytotoxicity, annexin V/7-AAD viability by flow cytometry, MV4-11; type: cell-based, human; conditions: MV4-11, 48 hours, drug range tested 1.25-160 μM
Description: as §1

TUR = experiment: Cytotoxicity, annexin V/7-AAD viability by flow cytometry, TUR; type: cell-based, human; conditions: 48 hours, drug range tested 1.25-160 μM
Description: as §1

CCRF-CEM = experiment: Single dose tumor cell growth inhibition, Leukemia CCRF-CEM; type: cell-based; conditions: single dose 10 μM
Source text: (§2) DHL is cytotoxic to various leukemia, colon cancer, CNS cancer and prostate cancer cell lines.

RPMI-8226 = experiment: Single dose tumor cell growth inhibition, Leukemia RPMI-8226; type: cell-based; conditions: RPMI-8226, single dose 10 μM
Source text: as §2

SW-620 = experiment: Single dose tumor cell growth inhibition, Colon Cancer SW-620; type: cell-based, human; conditions: SW-620, single dose 10 μM
Source text: as §2

SNB-75 = experiment: Single dose tumor cell growth inhibition, CNS Cancer SNB-75; type: cell-based, human; conditions: SNB-75, single dose 10 μM
Source text: as §2

DU-145 = experiment: Single dose tumor cell growth inhibition, Prostate Cancer DU-145; type: cell-based, human; conditions: DU-145, single dose 10 μM
Source text: as §2

NCI-H322M = experiment: Single dose tumor cell growth inhibition, Non-Small Cell Lung Cancer NCI-H322M; type: cell-based; conditions: single dose 10 μM
Source text: as §2

NCI-H460 = experiment: Single dose tumor cell growth inhibition, Non-Small Cell Lung Cancer NCI-H460; type: cell-based; conditions: NCI-H460, single dose 10 μM
Source text: as §2

SK-OV-3 = experiment: Single dose tumor cell growth inhibition, Ovarian Cancer SK-OV-3; type: cell-based; conditions: SK-OV-3, single dose 10 μM
Source text: as §2

[1] = system: normal bone marrow and peripheral blood mononuclear cells; conditions: 20 μM, 48 hours, AML n=8 vs normal n=4, Mann-Whitney p=0.004
Description: as §1, with “The” for “In order to assess the structure-activity relationship of DHL and its derivatives, DHL and its derivatives were evaluated against eight human leukemia cell lines. Cell lines were cultured in Iscove's Modified Dulbecco's Medium (IMDM) supplemented with 10%˜20% fetal bovine serum (FBS) according to culture conditions indicated by ATCC and 1% penicillin/streptomycin (Pen/Strep) at 37° C. and 5% CO2. The”

HMOX1 (Heme oxygenase 1) = experiment: Quantitative PCR of HMOX1 in MOLM-13 or MV-411 cells; type: cell-based; conditions: 20 μM, 6 hours, MOLM-13 and MV-411 cells
Description: (§3) (FIG. 8A) Graphical representation of the fold changes of HMOX-1 in MOLM-13 cells. Cells were seeded at 0.5 million cells per milliliter and subject to 20 μM of DHL, leucodine, DHL-proline, DHL-piperidine, DHL-morpholine, or parthenolide for 6 hours. RNA was then extracted and quantitative PCR was performed. Experiments were performed in triplicates. Lines represent mean for each specimen, with error bars representing the SD. Fold change was calculated by the delta-delta Ct method. […] (FIG. 8D) Immunoblot for MOLM-13 cells after 6 hours of treatment with either DHL or PTL with 10 or 20 μM. Blot was probed for phospho-p65 and p65 antibodies. Total p65 is shown as the loading control.
(§4) (FIG. 9A) Graphical representation of the fold changes of HMOX-1 in MV-411 cells. Cells were seeded at 0.5 million cells per milliliter and subject to 20 μM of DHL, leucodine, DHL-proline, DHL-piperidine, DHL-morpholine, or parthenolide for 6 hours. RNA was then extracted and quantitative PCR was performed. Experiments were performed in triplicates. Lines represent mean for each specimen, with error bars representing the SD. Fold change was calculated by the delta-delta Ct method. (FIG. 9B) Graphical representation of the fold changes of HSPA1A in MV-411 cells, with the same experimental setup and analysis as FIG. […].
(§5) To compare these intracellular effects of DHL and its derivatives, quantitative PCR was performed (FIG. 8 and FIG. 9). MOLM-13 or MV-411 cells were seeded at 0.5 million cells per milliliter. Cells were treated for 6 hours with 20 μM of DHL, Leucodine, DHL-Morpholine, DHL-Proline, DHL-Piperidine or PTL, and then collected. Total RNA was extracted using the Qiashredder and Qiagen Rneasy Mini kits. […] Quantitative PCR was performed using probes for HMOX-1 (Hs01110251_m1), HSPA1A (Hs00359163_s1), and NFKB1 (Hs00765730_m1). […] Single-plex real-time PCR was performed in triplicates in a StepOne plus RealTime PCR system and analyzed with the StepOne Software. Fold change was calculated using the 2-DDCT method described by Livak and Schmittgen.

HSPA1A = experiment: Quantitative PCR of HSPA1A in MOLM-13 or MV-411 cells; type: cell-based; conditions: 20 μM, 6 hours, MOLM-13 and MV-411 cells
Description: as §3, §4, §5

NF-κB = experiment: Quantitative PCR of NF-κB transcript in MOLM-13 and MV-411 cells; type: cell-based; conditions: 20 μM, 6 hours
Description: as §3
as §5, with “collected.” for “collected. Total RNA was extracted using the Qiashredder and Qiagen Rneasy Mini kits.”

Log P octanol/water = type: physicochemical; conditions: experimentally determined

With `C=C1C(=O)O[C@@H]2[C@H]3C(C)=CC(=O)C3=C(C)CC[C@@H]12` [DHL, dehydroleucodine] the LD50 (Kasumi-1) was 12.92 µM, the LD50 (MOLM-13) was 12.59 µM and the LD50 (MV4-11) was 5.02 µM. The LD50 (TUR) was 12.18 µM, the Percent inhibition (CCRF-CEM) was 44.9% and the Percent inhibition (RPMI-8226) was 31.7%. The Percent inhibition (SW-620) was 30.0%, the Percent inhibition (SNB-75) was 35.5% and the Percent inhibition (DU-145) was 44.0%. It also gave a Percent inhibition (NCI-H322M) of 0.0%, a Percent inhibition (NCI-H460) of 0.0% and a Percent inhibition (SK-OV-3) of 0.0%. For the same compound, the “potency to AML cell lines versus normal mononuclear cells” value [1] was “significantly more potent to the AML cell lines”, the “HMOX1 expression, fold change” value (HMOX1 (Heme oxygenase 1)) was “upregulated” and the “HSPA1A expression, fold change” value (HSPA1A) was “upregulated”. For the same compound, the “NF-κB transcript levels” value (NF-κB) was “slightly downregulated” and the “Log P octanol/water” value (Log P octanol/water) was 2.33 (±0.16).
